According to ChEMBL document CHEMBL3739327, “Novel indole-based sigma-2 receptor ligands: synthesis, structureaffinity relationship and antiproliferative activity” (Medchemcomm, 2015):
Activity calls are given as the source filed them. The calls are words filed in the database; no cut-off is given here.

Columns and labels:
[1] = biological target: Sigma non-opioid intracellular receptor 1 (Rattus norvegicus, UniProt Q9R0C9); experiment: Displacement of [3H]-(+)-pentazocine from sigma 1 receptor in rat brain by competition binding assay; format: tissue-based
[2] = Displacement of [3H]-DTG from sigma 2 receptor in rat liver membrane by competition binding assay in presence of dextrallorphan; format: cell membranes
[3] = organism: Rattus norvegicus; experiment: Selectivity ratio of Ki for sigma 1 receptor in rat brain to Ki for sigma 2 receptor in rat liver membrane; format: cell membranes
[4] = Cell cycle arrest in human DU145 cells assessed as accumulation at G1 phase after 24 hrs by propidium iodide staining-based flow cytometry; format: functional; conditions: DU-145
[5] = biological target: Sigma non-opioid intracellular receptor 1 (Cavia porcellus, UniProt Q60492); experiment: Displacement of [3H]-(+)-pentazocine from sigma-1 receptor in guinea pig brain membrane by competition binding assay; format: cell membranes
[6] = tested on: MCF7; experiment: Antiproliferative activity against human MCF7 cells assessed as reduction in cell viability after 24 hrs by MTT assay; format: functional, cell-based; conditions: MCF7, 24 h
[7] = tested on: MCF7; experiment: Antiproliferative activity against human MCF7 cells assessed as reduction in cell viability after 48 hrs by MTT assay; format: functional, cell-based; conditions: MCF7, 48 h
[8] = Antiproliferative activity against human DU145 cells assessed as reduction in cell viability after 24 hrs by MTT assay; format: functional, cell-based; conditions: DU-145, 24 h
[9] = tested on: C6; experiment: Antiproliferative activity against rat C6 cells assessed as reduction in cell viability after 24 hrs by MTT assay; format: functional, cell-based; conditions: C6, 24 h
[10] = Cell cycle arrest in human DU145 cells assessed as accumulation at G1 phase at 15 to 25 uM after 24 hrs by propidium iodide staining-based flow cytometry (reference value: 58.2 %); format: functional; conditions: DU-145
[11] = tested on: MDA-MB-435; experiment: Induction of apoptosis in human MDA-MB-435 cells assessed as decreased cyclin D1 expression at 10 uM incubated for 24 hrs by Western blot analysis; format: functional, cell-based; conditions: TDE = time-dependent effect
[12] = tested on: MDA-MB-435; experiment: Induction of apoptosis in human MDA-MB-435 cells assessed as decreased cyclin B1 expression at 10 uM incubated for 24 hrs by Western blot analysis; format: functional, cell-based
[13] = tested on: MDA-MB-435; experiment: Induction of apoptosis in human MDA-MB-435 cells assessed as decreased phospho-Rb expression at 10 uM incubated for 24 hrs by Western blot analysis; format: functional, cell-based
[14] = Displacement of [3H]-DTG from sigma 2 receptor in rat brain by competition binding assay; format: tissue-based
[15] = Selectivity ratio of Ki for sigma 1 receptor in guinea pig brain membrane to Ki for sigma 2 receptor in rat liver membrane; format: cell membranes
[16] = Cell cycle arrest in human DU145 cells assessed as accumulation at G1 phase at 40 uM after 24 hrs by propidium iodide staining-based flow cytometry (reference value: 58.2 %); format: functional; conditions: DU-145
[17] = Cell cycle arrest in human DU145 cells assessed as accumulation at S phase at 40 uM after 24 hrs by propidium iodide staining-based flow cytometry (reference value: 38.6 %); format: functional; conditions: DU-145
[18] = Cell cycle arrest in human DU145 cells assessed as accumulation at G1 phase at 30 uM after 24 hrs by propidium iodide staining-based flow cytometry (reference value: 58.2 %); format: functional; conditions: DU-145
[19] = Cell cycle arrest in human DU145 cells assessed as accumulation at S phase at 30 uM after 24 hrs by propidium iodide staining-based flow cytometry (reference value: 38.6 %); format: functional; conditions: DU-145

Sigma non-opioid intracellular receptor 1 (Rattus norvegicus, UniProt Q9R0C9), sequence (Q9R0C9 whole entry): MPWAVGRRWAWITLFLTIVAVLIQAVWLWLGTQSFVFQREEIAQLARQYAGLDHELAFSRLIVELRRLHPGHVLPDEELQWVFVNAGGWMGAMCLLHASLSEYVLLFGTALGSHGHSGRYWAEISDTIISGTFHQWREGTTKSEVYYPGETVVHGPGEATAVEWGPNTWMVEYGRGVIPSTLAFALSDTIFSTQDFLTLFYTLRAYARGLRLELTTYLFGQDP
Sigma non-opioid intracellular receptor 1 (Cavia porcellus, UniProt Q60492), sequence (Q60492 whole entry): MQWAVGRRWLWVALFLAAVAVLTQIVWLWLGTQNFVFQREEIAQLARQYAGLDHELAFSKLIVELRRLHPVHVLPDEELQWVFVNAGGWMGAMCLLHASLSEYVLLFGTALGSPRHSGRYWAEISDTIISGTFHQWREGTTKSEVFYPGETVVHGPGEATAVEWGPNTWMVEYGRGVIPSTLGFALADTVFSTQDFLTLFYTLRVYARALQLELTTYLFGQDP

Compound | Ki [1] | Ki [2] | Ratio Ki [3] | also measured
FCCOCCOCCOc1ccc(N2CCN(CCCCc3cn(-c4ccc(F)cc4)c4ccccc34)CC2)cc1 | 2.16 µM | 1.88 µM | 1.1 | –
N#CC1(c2ccccc2)CCN(CCCCc2cn(-c3ccc(I)cc3)c3ccccc23)CC1 | 0.386 µM | 0.0185 µM | 20.9 | –
N#CC1(c2ccccc2)CCN(CCCCc2cn(-c3ccc(F)cc3)c3ccccc23)CC1 | 0.00258 µM | 0.00303 µM | 0.9 | –
FCCOc1cccc(N2CCN(CCCCc3cn(-c4ccc(F)cc4)c4ccccc34)CC2)c1 | 0.257 µM | 0.0484 µM | 5.3 | –
Fc1ccc(-n2cc(CCCCN3CCC4(CC3)OCc3ccccc34)c3ccccc32)cc1 [SIRAMESINE] | – | 0.00308 µM | – | Activity [4]: Dose-dependent effect; Ki [5]: 0.0105 µM; EC50 [6]: 23.6 µM; EC50 [7]: 12.3 µM; EC50 [8]: 13.9 µM; EC50 [9]: 43.1 µM; Activity [10]: 75.7%; Activity [11]: tde; Activity [12]: Active; Activity [13]: Active; IC50 [14]: 0.00012 µM
FCCc1cn(CCCCN2CCC3(CC2)OCc2ccccc23)c2ccccc12 | 0.011 µM | 0.0298 µM | 0.4 | –
FCCn1cc(CCCCN2CCC3(CC2)OCc2ccccc23)c2ccccc21 | 0.246 µM | 0.044 µM | 5.6 | –
COc1cc2c(cc1OC)CN(CCCCC(=O)c1ccc(F)cc1)CC2 | 0.0166 µM | 0.0124 µM | 1.3 | –
COc1cc2c(cc1OC)CN(CCCCn1cc(CCF)c3ccccc31)CC2 | 0.493 µM | 0.0275 µM | 17.9 | –
COc1cc2c(cc1OC)CN(CCCCc1cn(-c3ccc(F)cc3)c3ccccc13)CC2 | 0.531 µM | 0.0492 µM | 10.8 | Activity [4]: Dose-dependent effect; Ratio Ki [15]: 260; EC50 [6]: 20.9 µM; EC50 [7]: 17.8 µM; EC50 [8]: 28.8 µM; EC50 [9]: 76.5 µM; Activity [16]: 84.1%; Activity [17]: 15.9%
COc1cc2c(cc1OC)CN(CCCCn1cc(CCCF)c3ccccc31)CC2 | 0.263 µM | 0.0285 µM | 9.2 | –
COc1cc2c(cc1OC)CN(CCCCc1cn(-c3ccc(F)cc3)c3ccccc13)C2 | 0.256 µM | 0.0538 µM | 4.8 | Activity [4]: Dose-dependent effect; EC50 [6]: 17 µM; EC50 [8]: 26.9 µM; EC50 [9]: 44.1 µM; Activity [18]: 80.5%; Activity [19]: 19.3%
FCCOCCOc1ccc(N2CCN(CCCCc3cn(-c4ccc(F)cc4)c4ccccc34)CC2)cc1 | 1.11 µM | 0.458 µM | 2.4 | –
FCCOc1ccc(N2CCN(CCCCc3cn(-c4ccc(F)cc4)c4ccccc34)CC2)cc1 | 0.614 µM | 0.068 µM | 9 | –
